Measurements reported in US20110105419A1, “PHARM[…] BASED ON CO[…] OF D-METALS” (priority 2008, published 2011).
Marks after values point to notes of the source that are not given here.

Key:
male rats with cytopenia = experiment: General blood analysis of male rats with cytopenia after application of cyclophosphane; type: in vivo, rat; details: doses mg/kg: cysteine 9.5, lithium carbonate 3, C-Li 10, Fe-C-Li:C-Li 10
herpes type 2 (HSV-2) = experiment: Generalized herpetic infection of white mice; type: in vivo; details: mice infected with HSV-2
[1] = target: T1, epidermal growth factor receptor (Homo sapiens, UniProt P00533); experiment: Tyrosine kinase activity of the epidermal growth factor receptor in A431 cells (phosphotyrosine immunoblotting, densitometry); type: cell-based
T1 construct: cells of the human epidermoid carcinoma line A431 have an extraordinarily high level of expression of the epidermal growth factor receptor; endogenous in cells; host or cells: A431 (All-Russian Cell Culture Collection)
T1 sequence (P00533 25-1210): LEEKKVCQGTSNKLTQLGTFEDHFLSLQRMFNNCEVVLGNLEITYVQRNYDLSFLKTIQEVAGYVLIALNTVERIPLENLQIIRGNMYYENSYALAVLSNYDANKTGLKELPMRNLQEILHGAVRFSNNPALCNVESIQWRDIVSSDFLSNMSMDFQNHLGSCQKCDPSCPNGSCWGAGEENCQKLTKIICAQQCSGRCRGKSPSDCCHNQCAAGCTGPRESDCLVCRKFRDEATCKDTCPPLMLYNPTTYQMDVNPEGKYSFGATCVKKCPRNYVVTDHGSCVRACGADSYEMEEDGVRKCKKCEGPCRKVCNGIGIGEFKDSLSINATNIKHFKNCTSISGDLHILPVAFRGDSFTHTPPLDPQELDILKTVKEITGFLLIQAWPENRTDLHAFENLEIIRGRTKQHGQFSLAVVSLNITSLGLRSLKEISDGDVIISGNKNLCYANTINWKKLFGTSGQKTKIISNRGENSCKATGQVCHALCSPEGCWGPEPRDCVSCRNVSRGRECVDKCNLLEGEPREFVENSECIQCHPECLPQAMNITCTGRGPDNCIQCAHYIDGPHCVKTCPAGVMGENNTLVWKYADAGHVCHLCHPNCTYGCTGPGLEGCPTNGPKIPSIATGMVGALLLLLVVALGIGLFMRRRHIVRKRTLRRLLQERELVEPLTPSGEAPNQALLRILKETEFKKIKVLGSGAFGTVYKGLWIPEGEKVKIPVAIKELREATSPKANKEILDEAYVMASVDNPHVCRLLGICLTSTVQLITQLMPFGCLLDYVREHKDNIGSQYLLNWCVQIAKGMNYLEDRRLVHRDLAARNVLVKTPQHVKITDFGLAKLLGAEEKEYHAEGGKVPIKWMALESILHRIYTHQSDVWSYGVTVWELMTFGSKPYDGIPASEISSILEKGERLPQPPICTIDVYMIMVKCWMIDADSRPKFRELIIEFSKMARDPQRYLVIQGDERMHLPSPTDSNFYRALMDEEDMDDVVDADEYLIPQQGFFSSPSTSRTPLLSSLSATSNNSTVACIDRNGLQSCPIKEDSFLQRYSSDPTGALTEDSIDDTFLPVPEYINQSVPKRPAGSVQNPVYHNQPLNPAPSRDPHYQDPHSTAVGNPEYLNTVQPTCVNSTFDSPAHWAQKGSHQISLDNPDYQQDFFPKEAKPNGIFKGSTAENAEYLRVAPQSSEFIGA

[2] = system: Chlamydia trachomatis, strain L-2; experiment: Experimental generalized chlamydial infection of white mice; type: in vivo
peritoneal macrophages = experiment: Intracellular calcium concentration and Ca2+ signals in peritoneal macrophages (Fura-2AM); type: cell-based, rat
[3] = 3 days after cyclophosphane 100 mg/kg
[4] = 7 days after cyclophosphane 100 mg/kg
[5] = 14 days after cyclophosphane 100 mg/kg
[6] = Zovirax 15 mg/kg daily for 14 days
[7] = Zovirax 30 mg/kg daily for 14 days
[8] = mice infected with Chlamydia trachomatis L-2, josamycin 25 mg/kg orally daily for 10 days
[9] = mice infected with Chlamydia trachomatis L-2, josamycin 50 mg/kg orally daily for 10 days
[10] = mice infected with Chlamydia trachomatis L-2, josamycin 100 mg/kg orally daily for 10 days
[11] = mice infected with Chlamydia trachomatis L-2, 2 LD50, 20 mg/kg s.c. daily for 10 days

SMILES | ESR (male rats with cytopenia; [3]) [mm/h] | Erythrocytes (male rats with cytopenia; [3]) | Leukocytes (male rats with cytopenia; [3]) | Lymphocytes (male rats with cytopenia; [3]) [%] | Reticulocytes (male rats with cytopenia; [3]) [%] | Segmented neutrophils (male rats with cytopenia; [3]) [%] | Thrombocytes (male rats with cytopenia; [3]) | ESR (male rats with cytopenia; [4]) [mm/h] | Erythrocytes (male rats with cytopenia; [4]) | Leukocytes (male rats with cytopenia; [4]) | Lymphocytes (male rats with cytopenia; [4]) [%] | Segmented neutrophils (male rats with cytopenia; [4]) [%] | Thrombocytes (male rats with cytopenia; [4]) | ESR (male rats with cytopenia; [5]) [mm/h] | Erythrocytes (male rats with cytopenia; [5]) | Leukocytes (male rats with cytopenia; [5]) | Lymphocytes (male rats with cytopenia; [5]) [%] | Reticulocytes (male rats with cytopenia; [5]) [%] | Segmented neutrophils (male rats with cytopenia; [5]) [%] | other results
O=C([O-])[O-].[Li+].[Li+] [Li2HCO3, lithium carbonate] | 2.4 ± 0.42 | 3.7 ± 0.21 10^12/l | 3.75 ± 0.46* 10^9/l | 62 ± 3.8 | 0.118 ± 0.01 | 19.7 ± 3.4 | 256 ± 45.3 10^9/l | 2.0 ± 0.36 | 3.6 ± 0.29 10^12/l | 3.22 ± 0.11* 10^9/l | 50.7 ± 1.6 | 33 ± 1.7 | 119 ± 12.0** 10^3/l | 2.4 ± 0.65 | 4.9 ± 0.27 10^12/l | 5.9 ± 0.26** 10^9/l | 69.3 ± 0.9 | 1.4 ± 0.3 | 14.9 ± 2.6 | Reticulocytes (male rats with cytopenia; [4]): 1.1 ± 0.1%
Nc1nc2c(ncn2COCCO)c(=O)[nH]1 [Zovirax] | – | – | – | – | – | – | – | – | – | – | – | – | – | – | – | – | – | – | – | % mortality (herpes type 2 (HSV-2); [6]): 50%; % protection, (S) (herpes type 2 (HSV-2); [6]): 12.5%; Died/total in group (herpes type 2 (HSV-2); [6]): 8/16; ML (days) (T), mean life (herpes type 2 (HSV-2); [6]): 12.8 days; % mortality (herpes type 2 (HSV-2); [7]): 0%; % protection, (S) (herpes type 2 (HSV-2); [7]): 62.5%; Died/total in group (herpes type 2 (HSV-2); [7]): 0/16; ML (days) (T), mean life (herpes type 2 (HSV-2); [7]): ∞
NCC(=O)O [glycine] | – | – | – | – | – | – | – | – | – | – | – | – | – | – | – | – | – | – | – | influence on the tyrosine kinase activity of the epidermal growth factor receptor ([1]; ligands 0.015 μmol/ml, coordination compounds 0.015 nmol/ml): barely detected
CO[C@@H]1[C@@H](O[C@@H]2O[C@H](C)[C@@H](O[C@H]3C[C@@](C)(O)[C@@H](OC(=O)CC(C)C)[C@H](C)O3)[C@H](N(C)C)[C@H]2O)[C@@H](CC=O)C[C@@H](C)[C@@H](O)/C=C/C=C/C[C@@H](C)OC(=O)C[C@H]1OC(C)=O [josamycin] | – | – | – | – | – | – | – | – | – | – | – | – | – | – | – | – | – | – | – | % mortality [2, 8]: 37.5%; % protection, (S) [2, 8]: 37.5%; Died/total in group [2, 8]: 6/16; HML (T), (days), harmonic mean life [2, 8]: 12.35 days; % mortality [2, 9]: 12.5%; % protection, (S) [2, 9]: 62.5%; Died/total in group [2, 9]: 2/16; HML (T), (days), harmonic mean life [2, 9]: 83.3 days; % mortality [2, 10]: 0%; % protection, (S) [2, 10]: 75%; Died/total in group [2, 10]: 0/16; HML (T), (days), harmonic mean life [2, 10]: ∞
Nc1ncnc2c1ncn2[C@@H]1O[C@H](COP(=O)(O)OP(=O)(O)OP(=O)(O)O)[C@@H](O)[C@H]1O [ATP] | – | – | – | – | – | – | – | – | – | – | – | – | – | – | – | – | – | – | – | [Ca2+]i peak of the Ca2+ signal (peritoneal macrophages; rat peritoneal macrophages, normal physiological solution, 200 μM ATP, baseline 75±18 nM): 820 ± 105 nM; [Ca2+]i in the plateau phase, on average (peritoneal macrophages; rat peritoneal macrophages, normal physiological solution, 4 min after addition of 200 μM ATP): 460 ± 115 nM
N[C@@H](CS)C(=O)O [cysteine] | 2.2 ± 0.30 | 3.0 ± 0.29 10^12/l | 3.26 ± 0.31* 10^9/l | 68 ± 2.8 | 0.09 ± 0.006 | 17.6 ± 2.1 | 220 ± 45.3 10^9/l | 1.9 ± 0.39 | 3.1 ± 0.33 10^12/l | 3.47 ± 0.08* 10^9/l | 51.5 ± 1.3 | 30 ± 1.8 | 124 ± 11.0** 10^3/l | 2.1 ± 0.73 | 4.7 ± 0.21 10^12/l | 5.7 ± 0.22** 10^9/l | 72.1 ± 1.6 | 1.1 ± 0.4 | 13.3 ± 1.9 | % mortality [2, 11]: 75%; % protection, (S) [2, 11]: 0%; Died/total in group [2, 11]: 12/16; HML (T), (days), harmonic mean life [2, 11]: 5.6 days; % mortality (herpes type 2 (HSV-2); 20 mg/kg daily for 14 days): 62.5%; Died/total in group (herpes type 2 (HSV-2); 20 mg/kg daily for 14 days): 10/16; ML (days) (T), mean life (herpes type 2 (HSV-2); 20 mg/kg daily for 14 days): 11.4 days; activation of the EGF receptor, by a factor of ([1]; cysteine 0.015 μmol/ml, periods of action from 1 hour to 4-8 hours, ratio to control): 8-10; [Ca2+]i increased to, by mobilization of calcium from the intracellular stores (peritoneal macrophages; rat peritoneal macrophages at rest, 0.015 μmol/ml): 180 ± 19 nM
N[C@@H](CS)C(=O)[O-].[Li+] [C—Li, lithium salt of cysteine] | 3.3 ± 0.80 | 4.0 ± 0.23 10^12/l | 4.38 ± 0.31* 10^9/l | 45 ± 1.6 | 0.1 ± 0.1 | 42 ± 1.6 | 387 ± 17.4 10^9/l | 3.2 ± 0.80 | 3.2 ± 0.18 10^12/l | 4.8 ± 0.18** 10^9/l | 22 ± 0.9 | 50.4 ± 0.6 | 164 ± 10.0** 10^3/l | 2.7 ± 0.49 | 5.2 ± 0.26 10^12/l | 5.6 ± 0.22** 10^9/l | 72.5 ± 1.4 | 1.3 ± 0.3 | 20.3 ± 2.4 | Reticulocytes (male rats with cytopenia; [4]): 1.2 ± 0.2%
